Test results taken from the supplement of paper PMC10307832.

How the values were obtained:
Assay in all cases: relative viability (nuclei count vs DMSO), 5 days (fraction); higher = more cells survive
NCI-H2347 = tested on: NCI-H2347
Procedure, shortened: (§1)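 Five library-drug doses in √10 steps were combined with a fixed anchor-drug dose, or a single drug was given alone, by pin tool to lung cancer cell lines in 1536-well plates the day after seeding. Nuclei were stained and counted after 5 days. Relative viability is the nuclei count in treated wells over that in vehicle wells, taken as the median of duplicate plates.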

NCI-H23 = tested on: NCI-H23
Procedure, shortened: as §1

NCI-H322M = tested on: NCI-H322M
Procedure, shortened: as §1

NCI-H358 = tested on: NCI-H358
Procedure, shortened: as §1

NCI-H441 = tested on: NCI-H441
Procedure, shortened: as §1

NCI-H522 = tested on: NCI-H522
Procedure, shortened: as §1

NCI-H647 = tested on: NCI-H647
Procedure, shortened: as §1

NCI-H650 = tested on: NCI-H650
Procedure, shortened: as §1

NCI-H727 = tested on: NCI-H727
Procedure, shortened: as §1

SK-MES-1 = tested on: SK-MES-1
Procedure, shortened: as §1

SW 1573 = tested on: SW 1573
Procedure, shortened: as §1

C=C1C(=O)O[C@@H](CCCCCCCC)[C@@H]1C(=O)O [C-75] + Nc1ncn([C@H]2C[C@H](O)[C@@H](CO)O2)c(=O)n1 [Decitabine] (partner 2 µM)
relative viability (NCI-H2347; first compound 0.08 µM): 0.673 | relative viability (NCI-H2347; first compound 0.253 µM): 0.626 | relative viability (NCI-H2347; first compound 0.8 µM): 0.653 | relative viability (NCI-H2347; first compound 2.53 µM): 0.572 | relative viability (NCI-H2347; first compound 8 µM): 0.659 | relative viability (NCI-H23; first compound 0.08 µM): 0.307 | relative viability (NCI-H23; first compound 0.253 µM): 0.334 | relative viability (NCI-H23; first compound 0.8 µM): 0.308 | relative viability (NCI-H23; first compound 2.53 µM): 0.249 | relative viability (NCI-H23; first compound 8 µM): 0.247 | relative viability (NCI-H322M; first compound 0.08 µM): 0.693 | relative viability (NCI-H322M; first compound 0.253 µM): 0.782 | relative viability (NCI-H322M; first compound 0.8 µM): 0.604 | relative viability (NCI-H322M; first compound 8 µM): 0.66 | relative viability (NCI-H358; first compound 0.08 µM): 0.212 | relative viability (NCI-H358; first compound 0.253 µM): 0.211 | relative viability (NCI-H358; first compound 0.8 µM): 0.203 | relative viability (NCI-H358; first compound 8 µM): 0.18 | relative viability (NCI-H441; first compound 0.08 µM): 0.299 | relative viability (NCI-H441; first compound 0.253 µM): 0.23 | relative viability (NCI-H441; first compound 0.8 µM): 0.287 | relative viability (NCI-H441; first compound 8 µM): 0.212 | relative viability (NCI-H522; first compound 0.08 µM): 0.741 | relative viability (NCI-H522; first compound 0.253 µM): 0.693 | relative viability (NCI-H522; first compound 0.8 µM): 0.763 | relative viability (NCI-H522; first compound 2.53 µM): 0.555 | relative viability (NCI-H522; first compound 8 µM): 0.599 | relative viability (NCI-H647; first compound 0.08 µM): 0.332 | relative viability (NCI-H647; first compound 0.253 µM): 0.422 | relative viability (NCI-H647; first compound 0.8 µM): 0.365 | relative viability (NCI-H647; first compound 2.53 µM): 0.306 | relative viability (NCI-H647; first compound 8 µM): 0.234 | relative viability (NCI-H650; first compound 0.08 µM): 0.315 | relative viability (NCI-H650; first compound 0.253 µM): 0.35 | relative viability (NCI-H650; first compound 0.8 µM): 0.329 | relative viability (NCI-H650; first compound 2.53 µM): 0.294 | relative viability (NCI-H650; first compound 8 µM): 0.403 | relative viability (NCI-H727; first compound 0.08 µM): 0.887 | relative viability (NCI-H727; first compound 0.253 µM): 0.955 | relative viability (NCI-H727; first compound 0.8 µM): 0.807 | relative viability (NCI-H727; first compound 2.53 µM): 0.767 | relative viability (NCI-H727; first compound 8 µM): 0.873 | relative viability (SK-MES-1; first compound 0.08 µM): 0.439 | relative viability (SK-MES-1; first compound 0.253 µM): 0.367 | relative viability (SK-MES-1; first compound 0.8 µM): 0.368 | relative viability (SK-MES-1; first compound 2.53 µM): 0.412 | relative viability (SK-MES-1; first compound 8 µM): 0.311 | relative viability (SW 1573; first compound 0.08 µM): 0.464 | relative viability (SW 1573; first compound 0.253 µM): 0.51 | relative viability (SW 1573; first compound 0.8 µM): 0.434 | relative viability (SW 1573; first compound 2.53 µM): 0.385 | relative viability (SW 1573; first compound 8 µM): 0.351
